Source: ChEMBL document CHEMBL5291721, “A preclinical secondary pharmacology resource illuminates target-adverse drug reaction associations of marketed drugs” (Nat Commun, 2023)

Key:
[1] = target: T1, Alpha-1A adrenergic receptor (Homo sapiens, UniProt P35348); assay type: functional, cell-based
T1 sequence (P35348 whole entry): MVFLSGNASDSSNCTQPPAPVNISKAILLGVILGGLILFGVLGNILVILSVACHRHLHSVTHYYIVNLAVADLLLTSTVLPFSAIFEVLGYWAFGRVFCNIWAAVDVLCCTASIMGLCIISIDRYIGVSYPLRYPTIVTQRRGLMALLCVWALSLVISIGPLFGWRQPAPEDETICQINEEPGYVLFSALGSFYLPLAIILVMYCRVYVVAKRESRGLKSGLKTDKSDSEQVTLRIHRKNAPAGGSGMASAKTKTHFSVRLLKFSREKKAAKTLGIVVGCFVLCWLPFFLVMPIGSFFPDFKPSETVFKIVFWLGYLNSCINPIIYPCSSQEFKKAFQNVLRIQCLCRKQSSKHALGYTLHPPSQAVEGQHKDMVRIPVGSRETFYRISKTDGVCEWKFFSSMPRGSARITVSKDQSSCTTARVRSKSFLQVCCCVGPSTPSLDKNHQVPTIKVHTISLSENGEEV

Progesterone receptor = target: T2, Progesterone receptor (Homo sapiens, UniProt P06401)
T2 sequence (P06401 whole entry): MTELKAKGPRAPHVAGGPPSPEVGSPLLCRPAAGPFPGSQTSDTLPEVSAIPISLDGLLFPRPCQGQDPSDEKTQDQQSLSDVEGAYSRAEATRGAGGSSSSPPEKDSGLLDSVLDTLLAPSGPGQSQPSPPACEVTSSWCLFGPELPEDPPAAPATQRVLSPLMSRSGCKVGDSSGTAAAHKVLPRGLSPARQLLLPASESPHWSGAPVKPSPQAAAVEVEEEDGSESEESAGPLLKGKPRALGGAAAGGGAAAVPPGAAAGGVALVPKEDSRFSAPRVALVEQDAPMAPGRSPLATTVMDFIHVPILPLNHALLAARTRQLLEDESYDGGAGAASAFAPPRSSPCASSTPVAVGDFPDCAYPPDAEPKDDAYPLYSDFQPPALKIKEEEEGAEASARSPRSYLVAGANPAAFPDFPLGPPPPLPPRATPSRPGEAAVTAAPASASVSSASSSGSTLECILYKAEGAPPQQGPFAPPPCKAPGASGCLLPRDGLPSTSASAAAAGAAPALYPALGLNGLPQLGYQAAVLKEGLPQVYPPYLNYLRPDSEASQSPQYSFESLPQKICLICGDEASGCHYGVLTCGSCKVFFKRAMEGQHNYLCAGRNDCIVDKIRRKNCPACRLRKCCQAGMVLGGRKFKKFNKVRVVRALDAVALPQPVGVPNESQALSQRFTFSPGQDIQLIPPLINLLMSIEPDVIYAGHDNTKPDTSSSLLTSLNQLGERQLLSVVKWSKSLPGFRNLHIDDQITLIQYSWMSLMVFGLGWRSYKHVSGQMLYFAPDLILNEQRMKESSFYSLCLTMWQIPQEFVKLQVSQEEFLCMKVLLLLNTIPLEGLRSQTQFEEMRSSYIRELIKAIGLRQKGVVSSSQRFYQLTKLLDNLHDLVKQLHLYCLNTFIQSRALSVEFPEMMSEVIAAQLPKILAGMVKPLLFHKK

[2] = target: T3, Prostaglandin G/H synthase 1 (Homo sapiens, UniProt P23219); assay type: functional
[3] = target: 3',5'-cyclic-AMP phosphodiesterase 4A (Homo sapiens, UniProt P27815); assay type: functional
[4] = target: T3, Prostaglandin G/H synthase 1; assay type: functional; remark: listed apart in the source
[5] = target: 5-hydroxytryptamine receptor 2B (Homo sapiens, UniProt P41595); assay type: functional, cell-based
[6] = target: T4, Alpha-2A adrenergic receptor (Homo sapiens, UniProt P08913)
T4 sequence (P08913 whole entry): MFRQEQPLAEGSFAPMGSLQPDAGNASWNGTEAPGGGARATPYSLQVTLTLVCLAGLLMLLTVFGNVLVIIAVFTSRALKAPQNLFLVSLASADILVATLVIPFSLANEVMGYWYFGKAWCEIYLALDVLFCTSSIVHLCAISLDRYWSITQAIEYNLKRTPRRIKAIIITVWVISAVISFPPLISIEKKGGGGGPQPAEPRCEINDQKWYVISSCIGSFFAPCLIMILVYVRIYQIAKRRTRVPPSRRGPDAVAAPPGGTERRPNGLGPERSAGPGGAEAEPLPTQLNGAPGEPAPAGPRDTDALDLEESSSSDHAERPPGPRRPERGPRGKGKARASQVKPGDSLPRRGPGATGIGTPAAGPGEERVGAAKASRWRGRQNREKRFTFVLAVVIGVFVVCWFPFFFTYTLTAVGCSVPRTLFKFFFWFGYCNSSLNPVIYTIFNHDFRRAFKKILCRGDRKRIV

Mu-type opioid receptor = Mu-type opioid receptor (Homo sapiens, UniProt P35372)
[7] = target: T5, Muscarinic acetylcholine receptor M1 (Homo sapiens, UniProt P11229); assay type: functional, cell-based
T5 sequence (P11229 whole entry): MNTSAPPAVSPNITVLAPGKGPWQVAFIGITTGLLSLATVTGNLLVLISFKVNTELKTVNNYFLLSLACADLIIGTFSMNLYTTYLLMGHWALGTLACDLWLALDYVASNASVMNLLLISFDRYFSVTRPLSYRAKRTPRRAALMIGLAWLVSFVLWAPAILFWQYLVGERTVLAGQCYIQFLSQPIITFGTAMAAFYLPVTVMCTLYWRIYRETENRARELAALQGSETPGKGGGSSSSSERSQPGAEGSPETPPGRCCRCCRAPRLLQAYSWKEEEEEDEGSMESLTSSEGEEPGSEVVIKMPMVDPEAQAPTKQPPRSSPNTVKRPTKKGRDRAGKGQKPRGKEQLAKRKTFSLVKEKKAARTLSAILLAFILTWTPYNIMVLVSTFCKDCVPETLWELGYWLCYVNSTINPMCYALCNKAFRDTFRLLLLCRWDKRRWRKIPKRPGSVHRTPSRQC

Prothrombin = Prothrombin (Homo sapiens, UniProt P00734); assay type: functional
Histamine H3 receptor = Histamine H3 receptor (Homo sapiens, UniProt Q9Y5N1)
Further: assay procedure not described here.

Histamine H3 receptor, sequence (Q9Y5N1 whole entry): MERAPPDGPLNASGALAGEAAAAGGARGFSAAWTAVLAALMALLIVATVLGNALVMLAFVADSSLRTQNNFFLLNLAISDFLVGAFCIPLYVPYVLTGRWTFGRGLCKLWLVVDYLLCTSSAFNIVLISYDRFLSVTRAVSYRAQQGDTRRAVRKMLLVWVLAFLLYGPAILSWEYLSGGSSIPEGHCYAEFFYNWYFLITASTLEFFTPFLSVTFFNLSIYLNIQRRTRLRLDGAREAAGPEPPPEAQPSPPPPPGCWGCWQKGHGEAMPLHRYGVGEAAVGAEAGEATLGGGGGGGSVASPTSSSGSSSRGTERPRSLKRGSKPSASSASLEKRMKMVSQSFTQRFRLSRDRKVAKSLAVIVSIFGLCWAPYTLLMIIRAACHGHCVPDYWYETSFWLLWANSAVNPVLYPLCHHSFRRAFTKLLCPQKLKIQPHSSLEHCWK
Mu-type opioid receptor, sequence (P35372 whole entry): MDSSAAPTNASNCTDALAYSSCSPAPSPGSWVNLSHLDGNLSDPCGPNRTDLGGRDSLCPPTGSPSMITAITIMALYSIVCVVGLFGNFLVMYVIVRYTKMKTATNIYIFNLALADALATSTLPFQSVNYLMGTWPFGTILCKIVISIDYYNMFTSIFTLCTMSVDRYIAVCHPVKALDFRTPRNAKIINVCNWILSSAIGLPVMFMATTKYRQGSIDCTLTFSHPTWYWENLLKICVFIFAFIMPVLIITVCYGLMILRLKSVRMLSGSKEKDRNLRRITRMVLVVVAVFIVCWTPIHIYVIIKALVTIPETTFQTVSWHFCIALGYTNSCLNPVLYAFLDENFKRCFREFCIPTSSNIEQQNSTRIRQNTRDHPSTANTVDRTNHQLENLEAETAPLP
T3 sequence (P23219 whole entry): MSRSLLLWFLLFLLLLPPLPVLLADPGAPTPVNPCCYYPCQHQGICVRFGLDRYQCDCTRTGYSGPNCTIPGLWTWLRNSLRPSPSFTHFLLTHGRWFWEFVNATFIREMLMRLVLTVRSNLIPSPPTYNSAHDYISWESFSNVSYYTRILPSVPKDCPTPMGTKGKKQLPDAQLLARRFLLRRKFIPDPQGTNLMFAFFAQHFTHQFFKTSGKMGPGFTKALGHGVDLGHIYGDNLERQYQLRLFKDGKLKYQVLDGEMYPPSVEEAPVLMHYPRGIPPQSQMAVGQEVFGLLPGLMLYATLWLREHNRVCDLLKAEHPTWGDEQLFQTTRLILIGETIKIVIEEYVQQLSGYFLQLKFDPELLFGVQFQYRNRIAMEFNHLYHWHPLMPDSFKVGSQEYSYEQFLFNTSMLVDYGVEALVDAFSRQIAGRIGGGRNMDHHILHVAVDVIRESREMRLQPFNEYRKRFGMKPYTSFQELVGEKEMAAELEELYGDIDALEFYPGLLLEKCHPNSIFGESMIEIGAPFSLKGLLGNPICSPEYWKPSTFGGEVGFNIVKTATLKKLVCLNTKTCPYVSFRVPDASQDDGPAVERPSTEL
5-hydroxytryptamine receptor 2B, sequence (P41595 whole entry): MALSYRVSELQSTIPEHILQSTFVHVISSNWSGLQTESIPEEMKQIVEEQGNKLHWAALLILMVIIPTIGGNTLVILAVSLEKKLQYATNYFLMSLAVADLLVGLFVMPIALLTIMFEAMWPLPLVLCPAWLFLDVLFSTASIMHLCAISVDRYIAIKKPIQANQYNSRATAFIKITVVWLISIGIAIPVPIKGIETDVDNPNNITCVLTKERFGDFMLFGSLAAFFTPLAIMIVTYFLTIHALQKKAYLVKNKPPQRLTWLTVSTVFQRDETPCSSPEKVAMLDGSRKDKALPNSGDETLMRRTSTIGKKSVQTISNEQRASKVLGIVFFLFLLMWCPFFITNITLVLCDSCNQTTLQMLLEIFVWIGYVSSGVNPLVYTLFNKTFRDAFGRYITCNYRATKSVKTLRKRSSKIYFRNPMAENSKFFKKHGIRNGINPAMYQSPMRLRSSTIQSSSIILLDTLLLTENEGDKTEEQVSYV
3',5'-cyclic-AMP phosphodiesterase 4A, sequence (P27815 whole entry): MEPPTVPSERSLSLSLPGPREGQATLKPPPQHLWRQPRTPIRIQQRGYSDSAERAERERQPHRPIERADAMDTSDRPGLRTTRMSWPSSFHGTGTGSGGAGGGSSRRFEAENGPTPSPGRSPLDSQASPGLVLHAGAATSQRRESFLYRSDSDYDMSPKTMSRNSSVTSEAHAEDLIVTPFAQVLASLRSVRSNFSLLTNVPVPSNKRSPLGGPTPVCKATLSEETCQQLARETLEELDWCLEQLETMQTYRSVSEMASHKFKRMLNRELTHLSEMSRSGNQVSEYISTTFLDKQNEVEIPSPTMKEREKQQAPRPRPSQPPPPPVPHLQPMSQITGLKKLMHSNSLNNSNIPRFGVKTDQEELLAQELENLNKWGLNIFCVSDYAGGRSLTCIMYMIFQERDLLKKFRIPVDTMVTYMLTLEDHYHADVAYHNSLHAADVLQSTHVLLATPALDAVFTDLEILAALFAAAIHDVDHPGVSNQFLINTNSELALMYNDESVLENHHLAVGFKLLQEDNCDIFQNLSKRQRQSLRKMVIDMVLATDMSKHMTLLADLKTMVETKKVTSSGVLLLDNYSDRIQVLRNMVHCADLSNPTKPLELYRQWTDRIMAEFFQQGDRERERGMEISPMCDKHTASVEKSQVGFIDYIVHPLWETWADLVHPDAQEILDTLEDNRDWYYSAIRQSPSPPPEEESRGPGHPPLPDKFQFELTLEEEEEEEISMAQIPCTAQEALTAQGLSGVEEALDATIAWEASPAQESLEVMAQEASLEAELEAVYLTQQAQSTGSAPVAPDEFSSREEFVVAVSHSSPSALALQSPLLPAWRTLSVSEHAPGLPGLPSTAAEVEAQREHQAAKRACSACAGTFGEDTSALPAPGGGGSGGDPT

For `CC1=C(/C=C/C(C)=C/C=C/C(C)=C/C=C/C=C(C)/C=C/C=C(C)/C=C/C2=C(C)CCCC2(C)C)C(C)(C)CCC1` [BETA CAROTENE], the AC50 [1] was over 30 µM, the AC50 (Progesterone receptor) was over 30 µM and the AC50 [2] was 5.22 µM. For the same molecule, the AC50 [3] was over 30 µM, the AC50 [4] was 8.1 µM and the AC50 [5] was over 30 µM. It also gave an AC50 [6] of over 30 µM, an AC50 (Mu-type opioid receptor) of over 30 µM and an AC50 [7] of over 30 µM. The AC50 (Prothrombin) was over 30 µM and the AC50 (Histamine H3 receptor) was over 30 µM.

With `CC(C)(C)C(=O)OCOC(=O)[C@@H]1N2C(=O)[C@@H](NC(=O)[C@H](N)c3ccccc3)[C@H]2SC1(C)C` [PIVAMPICILLIN] the AC50 [1] was over 30 µM, the AC50 (Progesterone receptor) was over 30 µM and the AC50 [2] was over 30 µM. It also gave an AC50 [3] of over 30 µM, an AC50 [4] of 7.48 µM and an AC50 [5] of over 30 µM. It also gave an AC50 [6] of over 30 µM, an AC50 (Mu-type opioid receptor) of over 30 µM and an AC50 [7] of over 30 µM. For the same molecule, the AC50 (Prothrombin) was over 30 µM and the AC50 (Histamine H3 receptor) was over 30 µM.

`CCOC(=O)[C@H](CCc1ccccc1)N[C@@H](C)C(=O)N1CC2(C[C@H]1C(=O)O)SCCS2` was tested, and the AC50 [1] was over 30 µM, the AC50 (Progesterone receptor) was over 30 µM and the AC50 [2] was over 30 µM. The AC50 [3] was over 30 µM, the AC50 [4] was over 30 µM and the AC50 [5] was over 30 µM. It also gave an AC50 [6] of over 30 µM, an AC50 (Mu-type opioid receptor) of over 30 µM and an AC50 [7] of over 30 µM. It also gave an AC50 (Prothrombin) of over 30 µM and an AC50 (Histamine H3 receptor) of over 30 µM.

`CCOc1ccccc1OCC1CNCCO1` (stereo unspecified) [VILOXAZINE] showed an AC50 [1] of over 30 µM, an AC50 (Progesterone receptor) of over 30 µM and an AC50 [2] of over 30 µM. It also gave an AC50 [3] of over 30 µM, an AC50 [4] of over 30 µM and an AC50 [5] of over 30 µM. It also gave an AC50 [6] of over 30 µM, an AC50 (Mu-type opioid receptor) of over 30 µM and an AC50 [7] of over 30 µM. It also gave an AC50 (Prothrombin) of over 30 µM and an AC50 (Histamine H3 receptor) of over 30 µM.

For `CCC(C)(C)c1ccc(CC(C)CN2C[C@@H](C)O[C@@H](C)C2)cc1` (stereo partly specified) [AMOROLFINE], the AC50 [1] was over 30 µM, the AC50 (Progesterone receptor) was over 30 µM and the AC50 [2] was over 30 µM. It also gave an AC50 [3] of over 30 µM, an AC50 [4] of over 30 µM and an AC50 [5] of over 30 µM. For the same molecule, the AC50 [6] was over 30 µM, the AC50 (Mu-type opioid receptor) was over 30 µM and the AC50 [7] was over 30 µM. It also gave an AC50 (Prothrombin) of over 30 µM and an AC50 (Histamine H3 receptor) of over 30 µM.

With `Cc1ccccc1OCC(O)CO` (stereo unspecified) [MEPHENESIN] the AC50 [1] was over 30 µM, the AC50 (Progesterone receptor) was over 30 µM and the AC50 [2] was over 30 µM. The AC50 [3] was over 30 µM, the AC50 [4] was over 30 µM and the AC50 [5] was over 30 µM. For the same molecule, the AC50 [6] was over 30 µM, the AC50 (Mu-type opioid receptor) was over 30 µM and the AC50 [7] was over 30 µM. The AC50 (Prothrombin) was over 30 µM and the AC50 (Histamine H3 receptor) was over 30 µM.

With `N[C@H]1C(O)O[C@H](CO)[C@@H](O)[C@@H]1O` (stereo partly specified) [GLUCOSAMINE] the AC50 [1] was over 30 µM, the AC50 (Progesterone receptor) was over 30 µM and the AC50 [2] was over 30 µM. For the same molecule, the AC50 [3] was over 30 µM, the AC50 [4] was over 30 µM and the AC50 [5] was over 30 µM. For the same molecule, the AC50 [6] was over 30 µM, the AC50 (Mu-type opioid receptor) was over 30 µM and the AC50 [7] was over 30 µM. For the same molecule, the AC50 (Prothrombin) was over 30 µM and the AC50 (Histamine H3 receptor) was over 30 µM.

In the case of `CC(=O)c1ccc2c(c1)N(CCCN(C)C)c1ccccc1S2` [ACEPROMAZINE], the AC50 [1] is reported as 0.003 µM, the AC50 (Progesterone receptor) is reported as over 30 µM and the AC50 [2] is reported as over 30 µM. For the same molecule, the AC50 [3] was over 30 µM, the AC50 [4] was over 30 µM and the AC50 [5] was over 30 µM. It also gave an AC50 [6] of 0.418 µM, an AC50 (Mu-type opioid receptor) of 2.42 µM and an AC50 [7] of over 30 µM. The AC50 (Prothrombin) was over 30 µM and the AC50 (Histamine H3 receptor) was over 30 µM.

Work on `CCCCOC(=O)C(=O)[C@H]1[C@H](C)C[C@H]2[C@@H]3C[C@H](F)C4=CC(=O)C=C[C@]4(C)[C@H]3[C@@H](O)C[C@@]21C` [FLUOCORTIN BUTYL] yielded an AC50 [1] of 13.1 µM, an AC50 (Progesterone receptor) of 0.711 µM and an AC50 [2] of over 30 µM. The AC50 [3] was over 30 µM, the AC50 [4] was over 30 µM and the AC50 [5] was over 30 µM. For the same molecule, the AC50 [6] was over 30 µM, the AC50 (Mu-type opioid receptor) was over 30 µM and the AC50 [7] was over 30 µM. It also gave an AC50 (Prothrombin) of over 30 µM and an AC50 (Histamine H3 receptor) of over 30 µM.

`CCOC(=O)/C=C1\SC(N2CCCCC2)C(=O)N1C` (stereo unspecified) [ETOZOLIN] was tested, and the AC50 [1] was over 30 µM, the AC50 (Progesterone receptor) was over 30 µM and the AC50 [2] was over 30 µM. For the same molecule, the AC50 [3] was over 30 µM, the AC50 [4] was over 30 µM and the AC50 [5] was over 30 µM. The AC50 [6] was over 30 µM, the AC50 (Mu-type opioid receptor) was over 30 µM and the AC50 [7] was over 30 µM. For the same molecule, the AC50 (Prothrombin) was over 30 µM and the AC50 (Histamine H3 receptor) was over 30 µM.

With `Clc1ccc(C(OCCN2CCCCC2)c2ccccc2)cc1` (stereo unspecified) [CLOPERASTINE] the AC50 [1] was 1.27 µM, the AC50 (Progesterone receptor) was over 30 µM and the AC50 [2] was over 30 µM. It also gave an AC50 [3] of over 30 µM, an AC50 [4] of over 30 µM and an AC50 [5] of over 30 µM. The AC50 [6] was 2.72 µM, the AC50 (Mu-type opioid receptor) was 13.6 µM and the AC50 [7] was over 30 µM. The AC50 (Prothrombin) was over 30 µM and the AC50 (Histamine H3 receptor) was over 30 µM.
